According to ChEMBL document CHEMBL1201862, “PubChem BioAssay data set” (2004):
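Cells were grown in 96-well plates and exposed to each compound for 48 hours at five concentrations; endpoints were interpolated linearly between bracketing concentrations, or set to the highest concentration if not reached. GI50: concentration for 50% inhibition of growth.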 Calls of active or inactive are those of the source. Cut-off read from the data, not from the text of the source: active = GI50 up to about 1.1 µM and inactive = higher.

Columns and labels:
Assay in all cases: growth of human tumour cells (NCI), 48 h
SNB-19 = tested on: SNB-19
HL-60 = tested on: HL-60
HCT-116 = tested on: HCT-116
OVCAR-3 = tested on: OVCAR-3
OVCAR-5 = tested on: OVCAR-5
MOLT-4 = tested on: MOLT-4
MDA-N = tested on: MDA-N
HOP-92 = tested on: HOP-92
HT-29 = tested on: HT-29
Malme-3M = tested on: Malme-3M
TK-10 = tested on: TK-10
SR = tested on: SR
EKVX = tested on: EKVX
NCI-H226 = tested on: NCI-H226
PC-3 = tested on: PC-3
RXF 393 = tested on: RXF 393
SF-295 = tested on: SF-295
HOP-62 = tested on: HOP-62
ACHN = tested on: ACHN
HCC 2998 = tested on: HCC 2998

Structure (SMILES) | GI50 (SNB-19) | GI50 (HL-60) | GI50 (HCT-116) | GI50 (OVCAR-3) | GI50 (OVCAR-5) | GI50 (MOLT-4) | GI50 (MDA-N) | GI50 (HOP-92) | GI50 (HT-29) | GI50 (Malme-3M) | GI50 (TK-10) | GI50 (SR) | GI50 (EKVX) | GI50 (NCI-H226) | GI50 (PC-3) | GI50 (RXF 393) | GI50 (SF-295) | GI50 (HOP-62) | GI50 (ACHN) | GI50 (HCC 2998)
COC(=O)[C@@H]1c2c(oc3cc(CO)cc(O)c3c2=O)C=C[C@H]1O | 17.7 µM (inactive) | 2.25 µM (inactive) | 2.3 µM (inactive) | 8.02 µM (inactive) | 9.51 µM (inactive) | 4.52 µM (inactive) | 4.59 µM (inactive) | 8.63 µM (inactive) | 3.39 µM (inactive) | 1.74 µM (inactive) | 2.34 µM (inactive) | 5.6 µM (inactive) | 13.3 µM (inactive) | 25.8 µM (inactive) | 7.18 µM (inactive) | 2.8 µM (inactive) | 18.4 µM (inactive) | 17.9 µM (inactive) | – | –
CC(=O)C1=C(C)O[C@@H]2O[C@H](COCc3ccccc3)[C@@H](OCc3ccccc3)[C@H](O)[C@@H]2S1 | 38 µM (inactive) | 16.4 µM (inactive) | 16.4 µM (inactive) | 15.2 µM (inactive) | 24.8 µM (inactive) | 14 µM (inactive) | 22.6 µM (inactive) | 22.9 µM (inactive) | 19.6 µM (inactive) | 18.3 µM (inactive) | 19.1 µM (inactive) | 22 µM (inactive) | 25.1 µM (inactive) | 18.8 µM (inactive) | 26.2 µM (inactive) | 13.8 µM (inactive) | 13.8 µM (inactive) | 19.5 µM (inactive) | 23.3 µM (inactive) | –
COC(=O)[C@@H](Cc1ccccc1)N1O[C@]12CCCC[C@@H]2NC(=O)OC(C)(C)C (some centres not stated) | 74.3 µM (inactive) | – | 38.7 µM (inactive) | 21.9 µM (inactive) | 25.1 µM (inactive) | 37.5 µM (inactive) | 20.4 µM (inactive) | 21.3 µM (inactive) | 18.3 µM (inactive) | 22.1 µM (inactive) | 25.1 µM (inactive) | 29.3 µM (inactive) | 27.9 µM (inactive) | 47.3 µM (inactive) | 25.6 µM (inactive) | 25 µM (inactive) | 55.6 µM (inactive) | 18.6 µM (inactive) | 18.5 µM (inactive) | 59.6 µM (inactive)
CNC(=O)/C(C#N)=C(\N)N1CCCC1 | > 100 µM (inactive) | > 100 µM (inactive) | > 100 µM (inactive) | > 100 µM (inactive) | > 100 µM (inactive) | > 100 µM (inactive) | > 100 µM (inactive) | – | > 100 µM (inactive) | > 100 µM (inactive) | > 100 µM (inactive) | > 100 µM (inactive) | > 100 µM (inactive) | > 100 µM (inactive) | > 100 µM (inactive) | > 100 µM (inactive) | – | > 100 µM (inactive) | > 100 µM (inactive) | > 100 µM (inactive)
CCCCC1Cc2ccccc2-c2n1c1ccccc1[n+]2C (configuration not stated) | – | 3.99 µM (inactive) | 17.6 µM (inactive) | 4.15 µM (inactive) | 42.9 µM (inactive) | 12.3 µM (inactive) | 12.3 µM (inactive) | 20.4 µM (inactive) | 10 µM (inactive) | – | 22.8 µM (inactive) | 7.67 µM (inactive) | 25.9 µM (inactive) | 22.3 µM (inactive) | 5.93 µM (inactive) | 13.3 µM (inactive) | 6.92 µM (inactive) | 24.9 µM (inactive) | 37.9 µM (inactive) | 5.47 µM (inactive)
Clc1ccc(-c2ccc(-c3nn4c(CNc5ccccc5)nnc4s3)o2)c(Cl)c1 | > 100 µM (inactive) | 44.3 µM (inactive) | 43.6 µM (inactive) | 45.2 µM (inactive) | > 100 µM (inactive) | 24 µM (inactive) | 45.1 µM (inactive) | 29.2 µM (inactive) | 40.1 µM (inactive) | > 100 µM (inactive) | > 100 µM (inactive) | 27.5 µM (inactive) | 41.5 µM (inactive) | 97.3 µM (inactive) | 54.2 µM (inactive) | 33.5 µM (inactive) | 60.1 µM (inactive) | > 100 µM (inactive) | > 100 µM (inactive) | –
O=C(/C=C/c1ccc(OCc2ccccc2)cc1)NCc1ccc(C(=O)NCc2ccccc2)cc1 | > 100 µM (inactive) | – | > 100 µM (inactive) | > 100 µM (inactive) | > 100 µM (inactive) | > 100 µM (inactive) | > 100 µM (inactive) | > 100 µM (inactive) | > 100 µM (inactive) | > 100 µM (inactive) | > 100 µM (inactive) | > 100 µM (inactive) | > 100 µM (inactive) | > 100 µM (inactive) | > 100 µM (inactive) | 0.687 µM (active) | > 100 µM (inactive) | > 100 µM (inactive) | > 100 µM (inactive) | > 100 µM (inactive)
FC(F)(F)c1ccccc1C1SCC2=Nc3ccccc3CN21 (configuration not stated) | 10.1 µM (inactive) | 21.3 µM (inactive) | 11.1 µM (inactive) | – | 12 µM (inactive) | 21.8 µM (inactive) | 29.5 µM (inactive) | 17 µM (inactive) | 16.4 µM (inactive) | – | 14.4 µM (inactive) | 21.2 µM (inactive) | 12 µM (inactive) | 12.6 µM (inactive) | 14.1 µM (inactive) | 10.2 µM (inactive) | 13.1 µM (inactive) | 11.1 µM (inactive) | – | 14.5 µM (inactive)
O[C@H]1[C@H]2[C@H](O)C[C@H](CCOCc3ccccc3)CN2C[C@H]1O | > 100 µM (inactive) | > 100 µM (inactive) | > 100 µM (inactive) | > 100 µM (inactive) | > 100 µM (inactive) | > 100 µM (inactive) | > 100 µM (inactive) | > 100 µM (inactive) | > 100 µM (inactive) | > 100 µM (inactive) | – | > 100 µM (inactive) | > 100 µM (inactive) | > 100 µM (inactive) | > 100 µM (inactive) | > 100 µM (inactive) | > 100 µM (inactive) | – | > 100 µM (inactive) | > 100 µM (inactive)
C/C(=N\[N+](C)(C)C)c1ccc(C)c(C)c1 | 42.9 µM (inactive) | 82.2 µM (inactive) | 76.9 µM (inactive) | 78.2 µM (inactive) | 42.4 µM (inactive) | > 10 µM (inactive) | 45.8 µM (inactive) | > 10 µM (inactive) | 21.1 µM (inactive) | > 10 µM (inactive) | 45.9 µM (inactive) | 82.6 µM (inactive) | 7.5 µM (inactive) | – | 36.9 µM (inactive) | 62.8 µM (inactive) | 83.6 µM (inactive) | > 10 µM (inactive) | > 10 µM (inactive) | > 10 µM (inactive)
CCOC(=O)c1sc2nc1CSc1sc(=S)sc1SCc1nc(sc1C(=O)OCC)-c1nc(c(C(=O)OCC)s1)CSc1sc(=S)sc1SCc1nc-2sc1C(=O)OCC | > 10 µM (inactive) | > 10 µM (inactive) | > 10 µM (inactive) | > 10 µM (inactive) | > 10 µM (inactive) | > 10 µM (inactive) | > 10 µM (inactive) | > 10 µM (inactive) | > 10 µM (inactive) | > 10 µM (inactive) | > 10 µM (inactive) | > 10 µM (inactive) | > 10 µM (inactive) | – | > 10 µM (inactive) | > 10 µM (inactive) | > 10 µM (inactive) | > 10 µM (inactive) | > 10 µM (inactive) | > 10 µM (inactive)
O=[N+]([O-])c1ccc2nc(Cl)n[n+]([O-])c2c1 | 25.5 µM (inactive) | 0.668 µM (active) | 12.7 µM (inactive) | 7.43 µM (inactive) | 17 µM (inactive) | 1.15 µM (inactive) | 11.6 µM (inactive) | – | 11.7 µM (inactive) | 15.9 µM (inactive) | 16.8 µM (inactive) | 2.2 µM (inactive) | 18.5 µM (inactive) | 19.6 µM (inactive) | 13 µM (inactive) | 15.1 µM (inactive) | 22.7 µM (inactive) | 17.1 µM (inactive) | 14 µM (inactive) | 16.3 µM (inactive)
OCC12C3C4C5C3C1C5C42 (configuration not stated) | > 100 µM (inactive) | > 100 µM (inactive) | > 100 µM (inactive) | > 100 µM (inactive) | > 100 µM (inactive) | > 100 µM (inactive) | > 100 µM (inactive) | > 100 µM (inactive) | > 100 µM (inactive) | > 100 µM (inactive) | > 100 µM (inactive) | > 100 µM (inactive) | > 100 µM (inactive) | > 100 µM (inactive) | > 100 µM (inactive) | > 100 µM (inactive) | > 100 µM (inactive) | > 100 µM (inactive) | > 100 µM (inactive) | –
c1ccc(C(=NNc2nc3ccccc3o2)c2ccccn2)nc1 | 0.194 µM (active) | 0.0439 µM (active) | < 0.0117 µM (active) | – | < 0.0175 µM (active) | < 0.0105 µM (active) | 0.191 µM (active) | < 0.01 µM (active) | < 0.0164 µM (active) | 0.0182 µM (active) | 0.0574 µM (active) | 0.0388 µM (active) | < 0.0162 µM (active) | < 0.01 µM (active) | < 0.0191 µM (active) | 0.158 µM (active) | 0.121 µM (active) | 0.0408 µM (active) | 0.0198 µM (active) | 0.0391 µM (active)
O=C1/C(=C/c2ccccc2)Oc2cc(O)ccc21 | > 100 µM (inactive) | > 100 µM (inactive) | > 100 µM (inactive) | > 100 µM (inactive) | – | > 100 µM (inactive) | > 100 µM (inactive) | – | > 100 µM (inactive) | – | > 100 µM (inactive) | > 100 µM (inactive) | > 100 µM (inactive) | > 100 µM (inactive) | > 100 µM (inactive) | > 100 µM (inactive) | > 100 µM (inactive) | > 100 µM (inactive) | > 100 µM (inactive) | > 100 µM (inactive)
